Measurements reported in US12077503B2, “Substituted cyclic amides and their use as herbicides” (FMC CORPORATION, priority 2015, dated 2024).

What was measured:
Format in all cases: in vivo
[1] = test system: barnyardgrass (Echinochloa crus-galli); test: Test G Pre-Emergence Protocol; settings: Echinochloa crus-galli, pre-emergence, 312 h, evaluated after 13 days; for pest or weed control at 15.625 g/ha: 15.625 g ai/ha, read-out: Barnyard grass damage rating (100=total damage to plant; 0=no damage to plant); for pest or weed control at 62.5 g/ha: 62.5 g ai/ha, 100=total damage to plant, 0=no damage to plant, read-out: plant damage rating, Barnyardgrass; for pest or weed control at 250 g/ha: 250 g ai/ha, read-out: Barnyardgrass damage rating (100=total damage to plant; 0=no damage to plant)
Method in brief: (§1)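 Test compound in 0.5% Tween 20 acetone/water (50:50) was applied at three rates (15.625, 62.5, 250 g/ha) to soil sown one day earlier. After 13 days plants were scored for injury, where 0 means unaffected and 100 means completely damaged.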

corn (Zea mays) [2] = test: Test G Pre-Emergence Protocol; settings: Zea mays, pre-emergence, 312 h, evaluated after 13 days; for plant injury at 15.625 g/ha: 15.625 g ai/ha; for plant injury at 15.625 g/ha / plant injury at 250 g/ha: read-out: Corn damage rating (100=total damage to plant; 0=no damage to plant); for plant injury at 62.5 g/ha: 62.5 g ai/ha, 100=total damage to plant, 0=no damage to plant, read-out: plant damage rating, Corn; for plant injury at 250 g/ha: 250 g ai/ha
Method in brief: as §1

[3] = test system: giant foxtail (Setaria faberi); test: Test G Pre-Emergence Protocol; settings: Setaria faberi, pre-emergence, 312 h, evaluated after 13 days; for pest or weed control at 15.625 g/ha: 15.625 g ai/ha; for pest or weed control at 15.625 g/ha / pest or weed control at 250 g/ha: read-out: Foxtail, Giant damage rating (100=total damage to plant; 0=no damage to plant); for pest or weed control at 62.5 g/ha: 62.5 g ai/ha, 100=total damage to plant, 0=no damage to plant, read-out: plant damage rating, Foxtail, Giant; for pest or weed control at 250 g/ha: 250 g ai/ha
Method in brief: as §1

[4] = test system: ivy-leaved morning glory (Ipomoea hederacea); test: Test G Pre-Emergence Protocol; settings: Ipomoea, pre-emergence, 312 h, evaluated after 13 days; for pest or weed control at 15.625 g/ha: 15.625 g ai/ha, read-out: Morning-glory, Ivy-leaved damage rating (100=total damage to plant; 0=no damage to plant); for pest or weed control at 62.5 g/ha: 62.5 g ai/ha, 100=total damage to plant, 0=no damage to plant, read-out: plant damage rating, Morningglory, Ivy-leaved; for pest or weed control at 250 g/ha: 250 g ai/ha, read-out: Morningglory, Ivy-leaved damage rating (100=total damage to plant; 0=no damage to plant)
Method in brief: as §1

[5] = test system: redroot pigweed (Amaranthus retroflexus); test: Test G Pre-Emergence Protocol; settings: Amaranthus retroflexus, pre-emergence, 312 h, evaluated after 13 days; for pest or weed control at 15.625 g/ha: 15.625 g ai/ha; for pest or weed control at 15.625 g/ha / pest or weed control at 250 g/ha: read-out: Pigweed, Redroot damage rating (100=total damage to plant; 0=no damage to plant); for pest or weed control at 62.5 g/ha: 62.5 g ai/ha, 100=total damage to plant, 0=no damage to plant, read-out: plant damage rating, Pigweed, Redroot; for pest or weed control at 250 g/ha: 250 g ai/ha
Method in brief: as §1

[6] = test system: velvetleaf (Abutilon theophrasti); test: Test G Pre-Emergence Protocol; settings: Abutilon theophrasti, pre-emergence, 312 h, evaluated after 13 days; for pest or weed control at 15.625 g/ha: 15.625 g ai/ha; for pest or weed control at 15.625 g/ha / pest or weed control at 250 g/ha: read-out: Velvetleaf damage rating (100=total damage to plant; 0=no damage to plant); for pest or weed control at 62.5 g/ha: 62.5 g ai/ha, 100=total damage to plant, 0=no damage to plant, read-out: plant damage rating, Velvetleaf; for pest or weed control at 250 g/ha: 250 g ai/ha
Method in brief: as §1

[7] = test system: barnyardgrass (Echinochloa crus-galli); test: Test G Post-Emergence Protocol; settings: Echinochloa crus-galli, post-emergence, 312 h; for pest or weed control at 15.625 g/ha: 15.625 g ai/ha, evaluated after 13 days (100=total damage to plant; 0=no damage to plant), read-out: Barnyardgrass damage rating; for pest or weed control at 62.5 g/ha: 62.5 g ai/ha, read-out: Barnyardgrass damage rating (100=total damage to plant; 0=no damage to plant); for pest or weed control at 62.5 g/ha / pest or weed control at 250 g/ha: evaluated after 13 days; for pest or weed control at 250 g/ha: 250 g ai/ha, read-out: damage to plant, Barnyardgrass (100=total damage to plant; 0=no damage to plant)
Method in brief: (§2)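 Eight days post-sowing, plants received a spray of test compound (acetone/water 50:50, 0.5% Tween 20) at 15.625, 62.5 or 250 g/ha. Glasshouse regime thereafter: 24/16 °C, 14 h light, 65% humidity. Assessment after 13 days on a 0–100 damage scale.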

corn (Zea mays) [8] = test: Test G Post-Emergence Protocol; settings: Zea mays, post-emergence, 312 h; for plant injury at 15.625 g/ha: 15.625 g ai/ha, evaluated after 13 days (100=total damage to plant; 0=no damage to plant), read-out: Corn damage rating; for plant injury at 62.5 g/ha: 62.5 g ai/ha, read-out: Corn damage rating (100=total damage to plant; 0=no damage to plant); for plant injury at 62.5 g/ha / plant injury at 250 g/ha: evaluated after 13 days; for plant injury at 250 g/ha: 250 g ai/ha, read-out: damage to plant, Corn (100=total damage to plant; 0=no damage to plant)
Method in brief: as §2

[9] = test system: giant foxtail (Setaria faberi); test: Test G Post-Emergence Protocol; settings: Setaria faberi, post-emergence, 312 h; for pest or weed control at 15.625 g/ha: 15.625 g ai/ha, evaluated after 13 days (100=total damage to plant; 0=no damage to plant), read-out: Foxtail, Giant damage rating; for pest or weed control at 62.5 g/ha: 62.5 g ai/ha, read-out: Foxtail, Giant damage rating (100=total damage to plant; 0=no damage to plant); for pest or weed control at 62.5 g/ha / pest or weed control at 250 g/ha: evaluated after 13 days; for pest or weed control at 250 g/ha: 250 g ai/ha, read-out: damage to plant, Foxtail, Giant (100=total damage to plant; 0=no damage to plant)
Method in brief: as §2

[10] = test system: ivy-leaved morning glory (Ipomoea hederacea); test: Test G Post-Emergence Protocol; settings: Ipomoea, post-emergence, 312 h; for pest or weed control at 15.625 g/ha: 15.625 g ai/ha, evaluated after 13 days (100=total damage to plant; 0=no damage to plant), read-out: Morningglory, Ivy-leaved damage rating; for pest or weed control at 62.5 g/ha: 62.5 g ai/ha, read-out: Morningglory, Ivy-leaved damage rating (100=total damage to plant; 0=no damage to plant); for pest or weed control at 62.5 g/ha / pest or weed control at 250 g/ha: evaluated after 13 days; for pest or weed control at 250 g/ha: 250 g ai/ha, read-out: damage to plant, Morningglory, Ivy-leaved (100=total damage to plant; 0=no damage to plant)
Method in brief: as §2

[11] = test system: redroot pigweed (Amaranthus retroflexus); test: Test G Post-Emergence Protocol; settings: Amaranthus retroflexus, post-emergence, 312 h; for pest or weed control at 15.625 g/ha: 15.625 g ai/ha, evaluated after 13 days (100=total damage to plant; 0=no damage to plant), read-out: Pigweed, Redroot damage rating; for pest or weed control at 62.5 g/ha: 62.5 g ai/ha, read-out: Pigweed, Redroot damage rating (100=total damage to plant; 0=no damage to plant); for pest or weed control at 62.5 g/ha / pest or weed control at 250 g/ha: evaluated after 13 days; for pest or weed control at 250 g/ha: 250 g ai/ha, read-out: damage to plant, Pigweed, Redroot (100=total damage to plant; 0=no damage to plant)
Method in brief: as §2

[12] = test system: velvetleaf (Abutilon theophrasti); test: Test G Post-Emergence Protocol; settings: Abutilon theophrasti, post-emergence, 312 h; for pest or weed control at 15.625 g/ha: 15.625 g ai/ha, evaluated after 13 days (100=total damage to plant; 0=no damage to plant), read-out: Velvetleaf damage rating; for pest or weed control at 62.5 g/ha: 62.5 g ai/ha, read-out: Velvetleaf damage rating (100=total damage to plant; 0=no damage to plant); for pest or weed control at 62.5 g/ha / pest or weed control at 250 g/ha: evaluated after 13 days; for pest or weed control at 250 g/ha: 250 g ai/ha, read-out: damage to plant, Velvetleaf (100=total damage to plant; 0=no damage to plant)
Method in brief: as §2

SMILES | pest or weed control at 15.625 g/ha [1] [%] | pest or weed control at 62.5 g/ha [1] [%] | pest or weed control at 250 g/ha [1] [%] | plant injury at 15.625 g/ha (corn (Zea mays) [2]) [%] | plant injury at 62.5 g/ha (corn (Zea mays) [2]) [%] | plant injury at 250 g/ha (corn (Zea mays) [2]) [%] | pest or weed control at 15.625 g/ha [3] [%] | pest or weed control at 62.5 g/ha [3] [%] | pest or weed control at 250 g/ha [3] [%] | pest or weed control at 15.625 g/ha [4] [%] | pest or weed control at 62.5 g/ha [4] [%] | pest or weed control at 250 g/ha [4] [%] | pest or weed control at 15.625 g/ha [5] [%] | pest or weed control at 62.5 g/ha [5] [%] | pest or weed control at 250 g/ha [5] [%] | pest or weed control at 15.625 g/ha [6] [%] | pest or weed control at 62.5 g/ha [6] [%] | pest or weed control at 250 g/ha [6] [%] | pest or weed control at 15.625 g/ha [7] [%] | pest or weed control at 62.5 g/ha [7] [%] | further results
CN1C[C@@H](c2ccc(C(F)(F)F)cc2)[C@H](C(=O)Nc2ccc(C#N)cc2Cl)C1=O (racemic) [Compound 1620] | 0 | 0 | 0 | 0 | 0 | 0 | 0 | 0 | 0 | 0 | 0 | 0 | 0 | 0 | 0 | 0 | 0 | 0 | 0 | 0 | pest or weed control at 250 g/ha [7]: 0%; plant injury at 15.625 g/ha (corn (Zea mays) [8]): 0%; plant injury at 62.5 g/ha (corn (Zea mays) [8]): 0%; plant injury at 250 g/ha (corn (Zea mays) [8]): 0%; pest or weed control at 15.625 g/ha [9]: 0%; pest or weed control at 62.5 g/ha [9]: 0%; pest or weed control at 250 g/ha [9]: 0%; pest or weed control at 15.625 g/ha [10]: 0%; pest or weed control at 62.5 g/ha [10]: 0%; pest or weed control at 250 g/ha [10]: 0%; pest or weed control at 15.625 g/ha [11]: 0%; pest or weed control at 62.5 g/ha [11]: 0%; pest or weed control at 250 g/ha [11]: 0%; pest or weed control at 15.625 g/ha [12]: 0%; pest or weed control at 62.5 g/ha [12]: 0%; pest or weed control at 250 g/ha [12]: 0%
COc1c(Cl)cccc1NC(=O)[C@H]1C(=O)N(C)C[C@@H]1c1ccc(C(F)(F)F)cc1 (racemic) [Compound 1447] | 0 | 0 | 10 | 0 | 0 | 20 | 50 | 50 | 60 | 0 | 0 | 0 | 0 | 0 | 0 | 0 | 0 | 0 | 0 | 0 | pest or weed control at 250 g/ha [7]: 0%; plant injury at 15.625 g/ha (corn (Zea mays) [8]): 0%; plant injury at 62.5 g/ha (corn (Zea mays) [8]): 10%; plant injury at 250 g/ha (corn (Zea mays) [8]): 10%; pest or weed control at 15.625 g/ha [9]: 10%; pest or weed control at 62.5 g/ha [9]: 20%; pest or weed control at 250 g/ha [9]: 50%; pest or weed control at 15.625 g/ha [10]: 0%; pest or weed control at 62.5 g/ha [10]: 0%; pest or weed control at 250 g/ha [10]: 0%; pest or weed control at 15.625 g/ha [11]: 0%; pest or weed control at 62.5 g/ha [11]: 0%; pest or weed control at 250 g/ha [11]: 0%; pest or weed control at 15.625 g/ha [12]: 0%; pest or weed control at 62.5 g/ha [12]: 0%; pest or weed control at 250 g/ha [12]: 0%
